Laboratory results reported in patent US7041687B2, “Indazole compounds useful as protein kinase inhibitors” (Vertex Pharmaceuticals Incorporated, priority 2002, dated 2006).

How the values were obtained:
Assay type in all cases: biochemical
PDK-1 = biological target: T1, PDK-1 (Homo sapiens, UniProt O15530); assay: PDK-1 inhibition assay (radioactive-phosphate incorporation); details: 40 μM ATP, 65 μM PDKtide, 25 nM PDK-1, 30° C.
T1 sequence (O15530 1-556): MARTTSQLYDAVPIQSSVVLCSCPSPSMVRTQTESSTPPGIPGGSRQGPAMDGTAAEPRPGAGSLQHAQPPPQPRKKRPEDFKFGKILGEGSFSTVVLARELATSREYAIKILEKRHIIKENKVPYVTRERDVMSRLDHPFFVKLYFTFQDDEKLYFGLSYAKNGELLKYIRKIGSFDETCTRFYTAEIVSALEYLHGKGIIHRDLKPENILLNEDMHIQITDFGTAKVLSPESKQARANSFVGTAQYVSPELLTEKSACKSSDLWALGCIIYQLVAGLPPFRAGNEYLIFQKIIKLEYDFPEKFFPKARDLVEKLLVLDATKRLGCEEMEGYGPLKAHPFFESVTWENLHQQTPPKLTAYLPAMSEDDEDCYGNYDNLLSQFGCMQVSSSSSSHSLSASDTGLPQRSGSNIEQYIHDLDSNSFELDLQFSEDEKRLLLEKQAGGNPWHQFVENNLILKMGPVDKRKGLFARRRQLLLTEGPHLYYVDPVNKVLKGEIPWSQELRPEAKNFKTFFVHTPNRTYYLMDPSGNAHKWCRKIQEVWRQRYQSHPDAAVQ

PKA = PKA (Homo sapiens, UniProt P17612); assay: PKA inhibition assay (standard coupled enzyme assay); details: 50 μM ATP, 80 μM Kemptide, 18 nM PKA, 30° C.
Summary of the method: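 Coupled PK/LDH assay (NADH read) with 18 nM PKA, 50 μM ATP and 80 μM Kemptide in 100 mM HEPES 7.5, 10 mM MgCl2, 3% DMSO at 30 °C. Compound dilutions (typically from 5 μM final) preincubated 10 min before ATP start; initial rates over 15 min gave IC50 and Ki by non-linear regression.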

AKT-3 = AKT-3 (Homo sapiens, UniProt Q9Y243); assay: AKT-3 inhibition assay (standard coupled enzyme assay); details: 170 μM ATP, 200 μM peptide, 45 nM AKT, 30° C.
Chain of AKT-3 (Q9Y243 whole entry): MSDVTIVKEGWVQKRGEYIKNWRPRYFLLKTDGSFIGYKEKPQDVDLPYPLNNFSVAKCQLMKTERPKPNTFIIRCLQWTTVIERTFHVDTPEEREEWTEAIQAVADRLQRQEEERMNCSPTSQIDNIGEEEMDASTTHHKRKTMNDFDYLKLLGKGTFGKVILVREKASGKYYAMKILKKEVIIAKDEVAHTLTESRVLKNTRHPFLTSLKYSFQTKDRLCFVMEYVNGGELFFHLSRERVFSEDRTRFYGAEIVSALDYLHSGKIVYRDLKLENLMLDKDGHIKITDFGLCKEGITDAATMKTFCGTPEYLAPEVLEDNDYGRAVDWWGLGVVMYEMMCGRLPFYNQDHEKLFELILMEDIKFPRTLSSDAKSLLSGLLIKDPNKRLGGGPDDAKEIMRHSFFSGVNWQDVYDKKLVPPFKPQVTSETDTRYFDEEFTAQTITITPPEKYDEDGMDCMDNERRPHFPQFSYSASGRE

| Ki (PDK-1) | Ki (PKA) | Ki (AKT-3) | Compound |
| --- | --- | --- | --- |
| > 3000 nM | < 1000 nM | < 1000 nM | NCCC(C(=O)Nc1ccc2[nH]nc(NC(=O)c3cc(F)cc(C(F)(F)F)c3)c2c1)c1ccc(Cl)c(Cl)c1 (stereo not drawn) [Compound I-203] |
| > 3000 nM | < 1000 nM | < 1000 nM | NCCC(C(=O)Nc1cc(Br)c2[nH]nc(Cl)c2c1)c1ccc(Cl)c(Cl)c1 (stereo not drawn) [Compound I-145] |
| 1000 to 3000 nM | < 1000 nM | < 1000 nM | NCCC(C(=O)Nc1ccc2[nH]nc(NC(=O)c3ccccc3Cl)c2c1)c1ccc(Cl)c(Cl)c1 (stereo not drawn) [Compound I-180] |
| < 1000 nM | < 1000 nM | < 1000 nM | NCCC(C(=O)Nc1ccc2[nH]nc(NC(=O)c3ccc(Br)cc3)c2c1)c1ccc(Cl)c(Cl)c1 (stereo not drawn) [Compound I-189] |
| > 3000 nM | < 1000 nM | < 1000 nM | NCCC(C(=O)Nc1ccc2[nH]nc(Nc3ccc(Cl)cc3)c2c1)c1ccc(Cl)c(Cl)c1 (stereo not drawn) [Compound I-163] |
| > 3000 nM | < 1000 nM | < 1000 nM | NCCC(C(=O)Nc1ccc2[nH]nc(NC(=O)c3cccc(C(F)(F)F)c3)c2c1)c1ccc(Cl)c(Cl)c1 (stereo not drawn) [Compound I-200] |
| < 1000 nM | < 1000 nM | < 1000 nM | NCCC(C(=O)Nc1ccc2[nH]nc(N)c2c1)c1ccc(Cl)c(Cl)c1 (stereo not drawn) [Compound I-138] |
| < 1000 nM | < 1000 nM | < 1000 nM | CNc1ccc(C(=O)Nc2n[nH]c3ccc(NC(=O)C(CCN)c4ccc(Cl)c(Cl)c4)cc23)cc1 (stereo not drawn) [Compound I-206] |
| < 1000 nM | < 1000 nM | < 1000 nM | CCNc1ccc(C(=O)Nc2n[nH]c3ccc(NC(=O)C(CCN)c4ccc(Cl)c(Cl)c4)cc23)cc1 (stereo not drawn) [Compound I-207] |
| < 1000 nM | < 1000 nM | < 1000 nM | NCCC(C(=O)Nc1ccc2[nH]nc(Cl)c2c1)c1ccc(Cl)c(Cl)c1 (stereo not drawn) [Compound I-121] |
| 1000 to 3000 nM | < 1000 nM | < 1000 nM | NCCC(C(=O)Nc1ccc2[nH]nc(NC(=O)c3cccc(Cl)c3)c2c1)c1ccc(Cl)c(Cl)c1 (stereo not drawn) [Compound I-160] |
| > 3000 nM | < 1000 nM | < 1000 nM | NCCC(C(=O)Nc1ccc2[nH]nc(Nc3cccc(OCc4ccccc4)c3)c2c1)c1ccc(Cl)c(Cl)c1 (stereo not drawn) [Compound I-161] |
| > 3000 nM | < 1000 nM | < 1000 nM | N#Cc1cccc(Nc2n[nH]c3ccc(NC(=O)C(CN)c4ccc(Cl)c(Cl)c4)cc23)c1 (stereo not drawn) [Compound I-232] |
| < 1000 nM | < 1000 nM | < 1000 nM | NCCC(C(=O)Nc1ccc2[nH]ncc2c1)c1c(F)ccc(Cl)c1F (stereo not drawn) [Compound I-109] |
| > 3000 nM | < 1000 nM | < 1000 nM | CN(C)CCC(C(=O)Nc1ccc2[nH]ncc2c1)c1ccc(Cl)c(Cl)c1 (stereo not drawn) [Compound I-226] |
| > 3000 nM | < 1000 nM | < 1000 nM | NCCC(C(=O)Nc1ccc2[nH]ncc2c1)c1ccc2ccccc2c1 (stereo not drawn) [Compound I-102] |
| 1000 to 3000 nM | < 1000 nM | < 1000 nM | NCCC(C(=O)Nc1ccc2[nH]ncc2c1)c1cccc(Cl)c1F (stereo not drawn) [Compound I-101] |

| Ki (PDK-1) | Ki (PKA) | Ki (AKT-3) | Compound |
| --- | --- | --- | --- |
| < 1000 nM | < 1000 nM | < 1000 nM | NCCC(C(=O)Nc1ccc2[nH]nc(NC(=O)c3ccc(-c4ccccc4)cc3)c2c1)c1ccc(Cl)c(Cl)c1 (stereo not drawn) [Compound I-172] |
| < 1000 nM | < 1000 nM | < 1000 nM | N#Cc1cccc(Nc2n[nH]c3ccc(NC(=O)C(CCN)c4ccc(Cl)c(Cl)c4)cc23)c1 (stereo not drawn) [Compound I-165] |
| 1000 to 3000 nM | < 1000 nM | < 1000 nM | NCC[C@@H](C(=O)Nc1ccc2[nH]nc(NC(=O)c3cccc(Cl)c3)c2c1)c1cccc(Cl)c1F [Compound I-177] |
| < 1000 nM | < 1000 nM | < 1000 nM | NCCC(C(=O)Nc1ccc2[nH]nc(NC(=O)c3cccc(F)c3)c2c1)c1ccc(Cl)c(Cl)c1 (stereo not drawn) [Compound I-179] |
| < 1000 nM | < 1000 nM | < 1000 nM | NCCC(C(=O)Nc1ccc2[nH]nc(NC(=O)c3cccs3)c2c1)c1ccc(Cl)c(Cl)c1 (stereo not drawn) [Compound I-169] |
| < 1000 nM | < 1000 nM | < 1000 nM | NCC[C@H](C(=O)Nc1ccc2[nH]nc(NC(=O)c3cccs3)c2c1)c1ccccc1 [Compound I-1044] |
| > 3000 nM | < 1000 nM | < 1000 nM | Cc1n[nH]c2ccc(NC(=O)C(CCN)c3ccc(Cl)c(Cl)c3O)cc12 (stereo not drawn) [Compound I-133] |
| 1000 to 3000 nM | < 1000 nM | < 1000 nM | NCCC(C(=O)Nc1ccc2[nH]nc(Nc3ccc(Br)cc3)c2c1)c1ccc(Cl)c(Cl)c1 (stereo not drawn) [Compound I-166] |
| > 3000 nM | < 1000 nM | 1000 to 10000 nM | NCCC(C(=O)Nc1ccc2[nH]nc(Nc3cccc(F)c3)c2c1)c1ccccc1 (stereo not drawn) [Compound I-1039] |
| < 1000 nM | < 1000 nM | < 1000 nM | Cc1n[nH]c2ccc(NC(=O)C(CCN)c3cccc(Cl)c3Cl)cc12 (stereo not drawn) [Compound I-120] |
| < 1000 nM | < 1000 nM | < 1000 nM | Cc1n[nH]c2ccc(NC(=O)C(CCN)c3ccc(Cl)c(Cl)c3F)cc12 (stereo not drawn) [Compound I-136] |
| 1000 to 3000 nM | < 1000 nM | < 1000 nM | CCc1n[nH]c2ccc(NC(=O)C(CCN)c3ccc(Cl)c(Cl)c3)cc12 (stereo not drawn) [Compound I-118] |
| > 3000 nM | < 1000 nM | < 1000 nM | NCCC(C(=O)Nc1ccc2[nH]nc(NC(=O)c3cccc(OC(F)(F)F)c3)c2c1)c1ccc(Cl)c(Cl)c1 (stereo not drawn) [Compound I-204] |
| < 1000 nM | < 1000 nM | < 1000 nM | COc1ccc(C(=O)Nc2n[nH]c3ccc(NC(=O)C(CCN)c4ccc(Cl)c(Cl)c4)cc23)cc1 (stereo not drawn) [Compound I-168] |
| 1000 to 3000 nM | < 1000 nM | < 1000 nM | NCCC(C(=O)Nc1ccc2[nH]nc(Br)c2c1)c1ccc(Cl)c(Cl)c1 (stereo not drawn) [Compound I-122] |
| < 1000 nM | < 1000 nM | < 1000 nM | CCOc1cccc(C(=O)Nc2n[nH]c3ccc(NC(=O)C(CCN)c4ccc(Cl)c(Cl)c4)cc23)c1 (stereo not drawn) [Compound I-181] |
